# Read-outs that look alike come from different tables or passages of the source.
# Key:
# [1] = 0.1% aqueous solution at 25° C., from 72 dynes/cm; cited from earlier work
# [2] = test system: Gram positive, Gram negative bacteria, yeast and mould; test: Minimum inhibitory concentration, whole panel of microbes; format: cell-based; details: for Antimicrobial activity, in words: up to 1.0% concentration
# [3] = Reduction of surface tension of water; format: physicochemical
# [4] = test system: Bacillus subtilis ATCC 9372; test: Minimum inhibitory concentration; format: cell-based; details: B. subtilis
# [5] = test system: Malassezia furfur MTCC 1374; test: Minimum inhibitory concentration; format: cell-based; details: M. furfur
# [6] = test system: Aspergillus niger ATCC 16404; test: Minimum inhibitory concentration; format: cell-based; details: for Concentration of individual component at the MIC of the blend: A. niger
# [7] = test system: Candida albicans ATCC 10231; test: Minimum inhibitory concentration; format: cell-based; details: for Concentration of individual component at the MIC of the blend: C. albicans
# [8] = test system: Staphylococcus aureus ATCC 6538S; test: Minimum inhibitory concentration; format: cell-based
# [9] = test system: Pseudomonas aeruginosa Immuno type IV; test: Minimum inhibitory concentration; format: cell-based; details: P. aeruginosa
# [10] = test system: Escherichia coli ATCC 10142; test: Minimum inhibitory concentration; format: cell-based; details: E. coli
# [11] = test system: Propionibacterium acnes MTCC 1951; test: Minimum inhibitory concentration; format: cell-based; details: P. acnes
smiles,measurement,setting,value
"CCCCC(CC)COCC(O)CO (stereo not shown) [2-ethyl hexyl glyceryl ether, 3-(2-ethylhexyl)oxy 1,2-propanediol]",Surface tension of water reduced to,[1],32 dynes/cm
"CCCCCCCC(=O)NCCO [Octanoyl MEA amide, N-(2-hydroxylethyl)caprylic acid amide]","Antimicrobial activity, in words",[2],did not exhibit any antibacterial activity
same,Surface tension of water reduced to,[3]; 0.05% level,38 dynes/cm
same,Surface tension of water,[3]; 0.05% solution,38.5 dyne/cm
same,Surface tension of water reduced to,[3]; 0.1% concentration,30 dynes/cm
same,Surface tension of water,[3]; 0.1% solution,30.5 dyne/cm
"OCCOc1ccccc1 [Phenoxy ethanol, 2-Phenoxy ethanol]",Concentration of individual component at the MIC of the blend,[4]; within Preservative Blend No 2,1600 ppm
same,Concentration of individual component at the MIC of the blend,[5]; within Preservative Blend No 2,3200 ppm
same,Concentration of phenoxy ethanol in combination enough to kill the organism,"[6]; in combination with [A] and [B] of Preservative Blend No 1, Aspergillus",around 0.25%
same,Concentration of phenoxy ethanol in combination enough to kill the organism,"[7]; in combination with [A] and [B] of Preservative Blend No 1, Candida",around 0.25%
"C=CCCCCCCCCC(=O)NCCO [Undecylenoyl MEA amide, N-undecylenoyl monoethanol amide]",Concentration of individual component at the MIC of the blend,[8]; within Preservative Blend No 1,200 ppm
same,Concentration of individual component at the MIC of the blend,[8]; within Preservative Blend No 2,300 ppm
same,Concentration of individual component at the MIC of the blend,[9]; within Preservative Blend No 1,200 ppm
same,Concentration of individual component at the MIC of the blend,[9]; within Preservative Blend No 2,300 ppm
same,Concentration of individual component at the MIC of the blend,[10]; within Preservative Blend No 1,200 ppm
same,Concentration of individual component at the MIC of the blend,[10]; within Preservative Blend No 2,300 ppm
same,Concentration of individual component at the MIC of the blend,[4]; within Preservative Blend No 1,200 ppm
same,Concentration of individual component at the MIC of the blend,[4]; within Preservative Blend No 2,200 ppm
same,Concentration of individual component at the MIC of the blend,[5]; within Preservative Blend No 1,400 ppm
same,Concentration of individual component at the MIC of the blend,[5]; within Preservative Blend No 2,400 ppm
same,Concentration of individual component at the MIC of the blend,[6]; within Preservative Blend No 1,300 ppm
same,Concentration of individual component at the MIC of the blend,[6]; within Preservative Blend No 2,200 ppm
same,Concentration of individual component at the MIC of the blend,[11]; within Preservative Blend No 1,300 ppm
same,Concentration of individual component at the MIC of the blend,[11]; within Preservative Blend No 2,200 ppm
same,Concentration of individual component at the MIC of the blend,[7]; within Preservative Blend No 1,300 ppm
same,Concentration of individual component at the MIC of the blend,[7]; within Preservative Blend No 2,200 ppm
same,Concentration needed for antimicrobial activity of the ingredient by itself (range over microbes),"[2]; ingredient alone, octanoyl glycine tested at neutral pH",> 10000 ppm
same,"Antimicrobial activity, in words",[2],does not exhibit any antimicrobial activity
